According to ChEMBL document CHEMBL5465560, “Selectivity Literature for EUbOPEN Chemogenomic Library” (2024):

What was measured:
[1] = target: Dual specificity mitogen-activated protein kinase kinase 2 (Homo sapiens) (UniProt P36507); assay: Selectivity interaction (ProQinase) EUB0000171b MAP2K2
[2] = target: Cyclin-dependent kinase 4 (Homo sapiens, UniProt P11802); assay: Selectivity interaction (KinomeScan (DiscoverX)) EUB0001079a CDK4; conditions: at 1 µM
[3] = target: T1, Tyrosine-protein kinase ITK/TSK (Homo sapiens) (UniProt Q08881); assay: Selectivity interaction (KinomeScan (DiscoverX)) EUB0000666a ITK; conditions: at 10 µM
T1 sequence (whole entry): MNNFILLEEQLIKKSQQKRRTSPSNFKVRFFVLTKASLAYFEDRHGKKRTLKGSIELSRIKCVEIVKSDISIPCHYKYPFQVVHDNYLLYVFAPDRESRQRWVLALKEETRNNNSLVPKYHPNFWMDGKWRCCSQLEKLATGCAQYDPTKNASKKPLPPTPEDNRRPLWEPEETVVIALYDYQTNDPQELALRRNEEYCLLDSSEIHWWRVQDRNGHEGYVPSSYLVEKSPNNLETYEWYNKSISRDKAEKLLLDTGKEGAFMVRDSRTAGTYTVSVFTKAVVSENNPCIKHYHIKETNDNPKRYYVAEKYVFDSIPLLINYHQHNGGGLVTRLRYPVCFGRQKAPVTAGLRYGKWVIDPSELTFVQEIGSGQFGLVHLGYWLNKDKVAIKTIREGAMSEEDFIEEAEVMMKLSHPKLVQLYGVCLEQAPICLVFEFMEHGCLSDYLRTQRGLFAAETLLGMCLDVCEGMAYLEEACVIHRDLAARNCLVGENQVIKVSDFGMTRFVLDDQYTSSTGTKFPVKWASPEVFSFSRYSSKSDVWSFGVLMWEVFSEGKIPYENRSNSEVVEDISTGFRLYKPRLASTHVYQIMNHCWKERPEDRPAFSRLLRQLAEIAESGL

[4] = target: Tyrosine-protein kinase Lyn (Homo sapiens, UniProt P07948); assay: Selectivity interaction (KinomeScan (DiscoverX)) EUB0000666a LYN; conditions: at 10 µM
[5] = target: Leukocyte tyrosine kinase receptor (Homo sapiens, UniProt P29376); conditions: at 10 µM
[6] = target: Mitogen-activated protein kinase kinase kinase kinase 1 (Homo sapiens) (UniProt Q92918); assay: Selectivity interaction (LanthaScreen Eu Kinase Binding Assay) EUB0001632a MAP4K1; conditions: at 10 µM
SRSF protein kinase 1 = SRSF protein kinase 1 (Homo sapiens, UniProt Q96SB4); assay: Selectivity interaction (ActivX KiNativ screen (kinase selectivity in THP-1 cell lysates)) EUB0000639a SRPK1; assay type: subcellular; conditions: lysate
[7] = target: Serine/threonine-protein kinase SIK2 (Homo sapiens) (UniProt Q9H0K1); assay: Selectivity interaction (Kinase panel (Invitrogen)) EUB0000639a SIK2; conditions: at 200 nM
[8] = target: Serine/threonine-protein kinase 25 (Homo sapiens) (UniProt O00506); assay: Selectivity interaction (KinomeScan (DiscoverX)) EUB0000607a STK25; conditions: at 10 µM
[9] = target: T2, Serine/threonine-protein kinase Nek2 (Homo sapiens) (UniProt P51955); assay: Selectivity interaction (KinomeScan (DiscoverX)) EUB0000607a NEK2; conditions: at 10 µM
T2 sequence (whole entry): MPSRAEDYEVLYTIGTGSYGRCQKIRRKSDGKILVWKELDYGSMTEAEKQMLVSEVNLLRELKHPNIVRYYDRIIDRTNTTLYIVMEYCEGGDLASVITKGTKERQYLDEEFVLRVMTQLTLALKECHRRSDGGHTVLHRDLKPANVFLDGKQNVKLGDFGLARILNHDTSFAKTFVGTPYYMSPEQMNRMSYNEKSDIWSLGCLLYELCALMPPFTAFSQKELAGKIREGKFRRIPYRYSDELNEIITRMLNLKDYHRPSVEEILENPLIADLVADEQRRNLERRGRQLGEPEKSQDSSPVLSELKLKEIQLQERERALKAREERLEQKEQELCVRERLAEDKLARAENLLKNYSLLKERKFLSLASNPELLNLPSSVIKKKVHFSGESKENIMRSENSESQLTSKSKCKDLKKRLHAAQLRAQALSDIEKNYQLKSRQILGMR

[10] = target: Serine/threonine-protein kinase/endoribonuclease IRE1 (Homo sapiens) (UniProt O75460); assay: Selectivity interaction (KinomeScan (DiscoverX)) EUB0001049a ERN1; conditions: at 1 µM
[11] = target: T3, Phosphorylase b kinase gamma catalytic chain, liver/testis isoform (Homo sapiens) (UniProt P15735); assay: Selectivity interaction (KinomeScan (DiscoverX)) EUB0000695a PHKG2; conditions: at 100 nM
T3 sequence (whole entry): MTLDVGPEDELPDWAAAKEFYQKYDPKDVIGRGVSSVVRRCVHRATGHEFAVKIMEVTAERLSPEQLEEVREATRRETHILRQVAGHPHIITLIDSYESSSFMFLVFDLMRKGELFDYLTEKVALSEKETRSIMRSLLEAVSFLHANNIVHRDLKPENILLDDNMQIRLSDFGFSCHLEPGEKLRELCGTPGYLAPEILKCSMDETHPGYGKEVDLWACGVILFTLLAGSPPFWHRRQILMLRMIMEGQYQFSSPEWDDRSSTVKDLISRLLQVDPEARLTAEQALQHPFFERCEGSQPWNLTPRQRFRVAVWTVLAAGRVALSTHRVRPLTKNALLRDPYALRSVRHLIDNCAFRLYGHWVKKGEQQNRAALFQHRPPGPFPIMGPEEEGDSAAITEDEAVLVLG

[12] = target: Ribosomal protein S6 kinase alpha-4 (Homo sapiens) (UniProt O75676); assay: Selectivity interaction (KinomeScan (DiscoverX)) EUB0000045b RPS6KA4; conditions: at 1 µM
[13] = target: BDNF/NT-3 growth factors receptor (Homo sapiens) (UniProt Q16620); assay: Selectivity interaction (KinomeScan (DiscoverX)) EUB0000618a NTRK2; conditions: at 10 µM
[14] = target: Histone-lysine N-methyltransferase, H3 lysine-36 specific (Homo sapiens) (UniProt Q96L73); conditions: at 10 µM

SRSF protein kinase 1, sequence (Q96SB4 whole entry): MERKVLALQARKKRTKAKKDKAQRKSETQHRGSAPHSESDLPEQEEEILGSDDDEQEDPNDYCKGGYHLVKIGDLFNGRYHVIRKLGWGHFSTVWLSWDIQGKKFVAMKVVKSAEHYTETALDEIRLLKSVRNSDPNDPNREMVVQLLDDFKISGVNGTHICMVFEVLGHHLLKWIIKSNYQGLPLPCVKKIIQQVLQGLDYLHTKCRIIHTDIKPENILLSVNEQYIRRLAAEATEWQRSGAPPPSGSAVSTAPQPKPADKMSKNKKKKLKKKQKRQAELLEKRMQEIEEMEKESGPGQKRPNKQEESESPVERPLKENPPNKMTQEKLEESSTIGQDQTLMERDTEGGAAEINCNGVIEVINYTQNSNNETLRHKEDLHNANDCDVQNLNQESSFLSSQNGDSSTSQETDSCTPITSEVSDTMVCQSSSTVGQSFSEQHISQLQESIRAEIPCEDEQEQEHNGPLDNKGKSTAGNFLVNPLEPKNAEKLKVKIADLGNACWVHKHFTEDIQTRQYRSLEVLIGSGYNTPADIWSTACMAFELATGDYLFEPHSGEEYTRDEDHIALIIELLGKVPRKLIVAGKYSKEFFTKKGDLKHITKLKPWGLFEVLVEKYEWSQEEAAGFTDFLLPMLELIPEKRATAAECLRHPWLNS
Dual specificity mitogen-activated protein kinase kinase 2 (Homo sapiens), sequence (P36507 whole entry): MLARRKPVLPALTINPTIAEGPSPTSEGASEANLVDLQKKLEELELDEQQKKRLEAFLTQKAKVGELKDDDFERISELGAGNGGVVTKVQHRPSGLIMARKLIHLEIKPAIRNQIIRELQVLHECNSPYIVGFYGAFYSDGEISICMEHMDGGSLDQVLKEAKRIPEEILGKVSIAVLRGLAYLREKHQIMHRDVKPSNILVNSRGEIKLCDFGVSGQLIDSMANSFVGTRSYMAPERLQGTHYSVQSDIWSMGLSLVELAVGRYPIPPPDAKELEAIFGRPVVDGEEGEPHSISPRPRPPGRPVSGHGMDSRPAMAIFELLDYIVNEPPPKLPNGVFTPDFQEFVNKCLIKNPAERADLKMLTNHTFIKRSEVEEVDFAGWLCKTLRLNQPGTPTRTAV
Ribosomal protein S6 kinase alpha-4 (Homo sapiens), sequence (O75676 whole entry, looked up): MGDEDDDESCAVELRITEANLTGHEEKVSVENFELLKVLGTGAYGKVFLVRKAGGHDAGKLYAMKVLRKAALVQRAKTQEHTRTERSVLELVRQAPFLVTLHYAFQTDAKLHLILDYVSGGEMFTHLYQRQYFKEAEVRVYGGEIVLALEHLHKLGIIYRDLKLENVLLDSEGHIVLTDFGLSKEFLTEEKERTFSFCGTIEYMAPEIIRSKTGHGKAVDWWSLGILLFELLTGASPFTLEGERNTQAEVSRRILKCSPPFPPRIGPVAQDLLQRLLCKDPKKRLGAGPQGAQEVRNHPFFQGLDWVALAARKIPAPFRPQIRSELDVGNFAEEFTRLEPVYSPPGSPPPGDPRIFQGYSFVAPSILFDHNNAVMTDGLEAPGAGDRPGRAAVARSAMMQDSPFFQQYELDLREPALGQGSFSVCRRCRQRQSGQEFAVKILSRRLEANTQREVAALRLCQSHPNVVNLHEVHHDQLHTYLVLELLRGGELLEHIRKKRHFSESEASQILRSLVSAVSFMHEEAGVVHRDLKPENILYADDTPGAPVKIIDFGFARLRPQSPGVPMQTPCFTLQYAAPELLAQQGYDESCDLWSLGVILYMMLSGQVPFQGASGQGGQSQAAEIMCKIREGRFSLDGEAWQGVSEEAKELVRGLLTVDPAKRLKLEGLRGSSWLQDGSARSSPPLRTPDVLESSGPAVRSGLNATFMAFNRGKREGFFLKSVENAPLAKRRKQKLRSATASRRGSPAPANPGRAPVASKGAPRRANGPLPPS
Serine/threonine-protein kinase/endoribonuclease IRE1 (Homo sapiens), sequence (O75460 19-977 limits assumed): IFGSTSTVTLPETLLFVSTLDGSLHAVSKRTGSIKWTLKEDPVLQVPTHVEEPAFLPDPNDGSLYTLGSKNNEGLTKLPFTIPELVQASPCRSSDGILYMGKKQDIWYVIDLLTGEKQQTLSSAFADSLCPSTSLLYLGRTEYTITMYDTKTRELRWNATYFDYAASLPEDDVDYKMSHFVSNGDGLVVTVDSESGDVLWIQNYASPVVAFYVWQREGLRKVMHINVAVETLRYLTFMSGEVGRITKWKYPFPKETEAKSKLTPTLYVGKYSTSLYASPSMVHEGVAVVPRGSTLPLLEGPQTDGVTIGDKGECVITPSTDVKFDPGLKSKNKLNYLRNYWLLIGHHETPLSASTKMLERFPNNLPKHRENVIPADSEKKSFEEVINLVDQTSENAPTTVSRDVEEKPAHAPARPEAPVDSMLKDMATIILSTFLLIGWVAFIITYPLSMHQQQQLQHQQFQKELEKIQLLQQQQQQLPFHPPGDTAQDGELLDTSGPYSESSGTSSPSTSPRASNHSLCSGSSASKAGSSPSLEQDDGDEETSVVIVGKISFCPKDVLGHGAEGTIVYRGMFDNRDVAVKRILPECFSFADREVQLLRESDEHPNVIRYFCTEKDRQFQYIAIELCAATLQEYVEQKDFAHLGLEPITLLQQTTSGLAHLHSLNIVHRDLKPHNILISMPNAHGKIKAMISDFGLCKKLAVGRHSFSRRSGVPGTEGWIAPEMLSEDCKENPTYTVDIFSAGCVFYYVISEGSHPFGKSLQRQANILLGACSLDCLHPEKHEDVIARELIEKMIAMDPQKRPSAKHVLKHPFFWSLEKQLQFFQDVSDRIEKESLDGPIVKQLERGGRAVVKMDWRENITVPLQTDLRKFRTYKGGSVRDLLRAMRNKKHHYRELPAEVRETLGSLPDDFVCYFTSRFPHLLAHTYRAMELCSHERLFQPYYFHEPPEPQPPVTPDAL
Tyrosine-protein kinase Lyn, sequence (P07948 2-512 limits assumed): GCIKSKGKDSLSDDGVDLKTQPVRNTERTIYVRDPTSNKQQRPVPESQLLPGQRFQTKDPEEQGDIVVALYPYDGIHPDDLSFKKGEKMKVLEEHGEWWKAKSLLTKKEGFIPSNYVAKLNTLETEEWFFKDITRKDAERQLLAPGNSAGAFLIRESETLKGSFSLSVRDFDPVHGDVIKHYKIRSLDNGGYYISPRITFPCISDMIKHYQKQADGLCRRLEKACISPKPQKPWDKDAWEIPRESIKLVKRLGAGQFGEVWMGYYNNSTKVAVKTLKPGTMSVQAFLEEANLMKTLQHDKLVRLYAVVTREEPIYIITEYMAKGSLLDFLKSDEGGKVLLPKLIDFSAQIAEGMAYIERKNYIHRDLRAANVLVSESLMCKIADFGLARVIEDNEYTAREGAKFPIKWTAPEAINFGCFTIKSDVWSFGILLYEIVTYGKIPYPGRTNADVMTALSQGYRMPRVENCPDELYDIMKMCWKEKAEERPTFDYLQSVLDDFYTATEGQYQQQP
Cyclin-dependent kinase 4, sequence (P11802 whole entry): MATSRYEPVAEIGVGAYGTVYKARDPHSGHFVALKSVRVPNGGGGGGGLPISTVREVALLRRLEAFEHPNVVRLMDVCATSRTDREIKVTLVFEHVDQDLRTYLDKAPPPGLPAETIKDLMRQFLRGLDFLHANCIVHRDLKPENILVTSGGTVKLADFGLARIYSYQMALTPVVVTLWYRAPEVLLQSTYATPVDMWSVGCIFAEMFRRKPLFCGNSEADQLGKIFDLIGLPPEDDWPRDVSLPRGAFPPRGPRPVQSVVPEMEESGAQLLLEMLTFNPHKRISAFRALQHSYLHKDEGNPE
Serine/threonine-protein kinase 25 (Homo sapiens), sequence (O00506 whole entry, looked up): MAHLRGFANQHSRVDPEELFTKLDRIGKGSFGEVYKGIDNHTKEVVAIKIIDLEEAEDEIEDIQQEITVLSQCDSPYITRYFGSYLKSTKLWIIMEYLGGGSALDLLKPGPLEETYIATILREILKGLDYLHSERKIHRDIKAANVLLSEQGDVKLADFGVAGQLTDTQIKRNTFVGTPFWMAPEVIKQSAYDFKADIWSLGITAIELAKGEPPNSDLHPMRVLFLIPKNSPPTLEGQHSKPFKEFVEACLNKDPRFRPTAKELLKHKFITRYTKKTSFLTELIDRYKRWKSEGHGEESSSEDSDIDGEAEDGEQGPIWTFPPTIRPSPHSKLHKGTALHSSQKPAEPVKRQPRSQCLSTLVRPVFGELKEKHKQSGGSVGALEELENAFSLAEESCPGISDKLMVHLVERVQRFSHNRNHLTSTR
Mitogen-activated protein kinase kinase kinase kinase 1 (Homo sapiens), sequence (Q92918 whole entry, looked up): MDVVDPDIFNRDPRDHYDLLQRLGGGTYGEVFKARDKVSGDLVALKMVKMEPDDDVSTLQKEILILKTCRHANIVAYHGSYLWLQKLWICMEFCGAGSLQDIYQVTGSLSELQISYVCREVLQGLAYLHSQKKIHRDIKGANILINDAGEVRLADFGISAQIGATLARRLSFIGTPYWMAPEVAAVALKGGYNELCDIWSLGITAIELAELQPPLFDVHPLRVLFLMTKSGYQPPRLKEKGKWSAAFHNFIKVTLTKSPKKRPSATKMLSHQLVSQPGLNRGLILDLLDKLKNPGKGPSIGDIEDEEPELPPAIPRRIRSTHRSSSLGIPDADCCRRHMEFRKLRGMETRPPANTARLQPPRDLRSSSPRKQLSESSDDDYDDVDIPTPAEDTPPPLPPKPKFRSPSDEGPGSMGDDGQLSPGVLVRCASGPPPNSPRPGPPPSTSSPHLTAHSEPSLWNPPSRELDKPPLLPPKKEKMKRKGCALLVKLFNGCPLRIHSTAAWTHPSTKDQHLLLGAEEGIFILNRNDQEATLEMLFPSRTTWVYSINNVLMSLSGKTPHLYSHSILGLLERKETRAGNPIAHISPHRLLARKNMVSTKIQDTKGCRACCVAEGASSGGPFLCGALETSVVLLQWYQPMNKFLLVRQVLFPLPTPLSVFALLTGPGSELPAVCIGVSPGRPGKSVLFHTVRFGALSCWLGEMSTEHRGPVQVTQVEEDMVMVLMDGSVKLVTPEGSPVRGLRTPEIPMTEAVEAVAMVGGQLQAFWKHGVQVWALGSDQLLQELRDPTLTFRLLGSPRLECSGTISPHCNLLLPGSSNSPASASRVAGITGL

`C=CC(=O)Nc1cccc(C(=O)Nc2ccc(Nc3cc(-c4[nH]c(SC)nc4C)ccn3)cc2)c1` gave a % of control ([1]; at 1 µM) of 76% and a % of control ([1]; at 5 µM) of 36%.

`Nc1cnc(N2CCc3cc(S(=O)(=O)Nc4c(F)cc(Cl)cc4F)cc(N4CCCC4=O)c32)nc1` [TP-020n] gave a % of control [2] of 97%.

`O=C(NOC[C@H](O)CO)c1ccc(F)c(F)c1Nc1ccc(I)cc1F` showed a % of control [3] of 97% and a % of control [4] of 72%.

Compound `Cc1cc([C@@H](C)Nc2ccccc2C(=O)O)c2nc(N3CCOCC3)cc(=O)n2c1` [AZD-6482] has a % of control [5] of 95%.

In the case of `Cn1cc(-n2cnc3c(NCc4nc5cc(Cl)c(Cl)cc5[nH]4)nc(N4CCOCC4)nc32)cn1`, the % of inhibition [6] is reported as -18.9%.

`CC[C@@H]1[C@H](F)C(=O)N[C@@H]1COc1nccc2cc(C(N)=O)c(OC)cc12` [ZIMLOVISERTIB] gave a % of inhibition (SRSF protein kinase 1; at 0.01 µM) of 6.9%, a % of inhibition (SRSF protein kinase 1; at 0.04 µM) of -23% and a % of inhibition (SRSF protein kinase 1; at 0.2 µM) of -5.5%. For the same compound, the % of inhibition (SRSF protein kinase 1; at 1 µM) was 11.7%, the % of inhibition (SRSF protein kinase 1; at 5 µM) was 19.9% and the % of inhibition [7] was 2.07%.

In the case of `CNC(=O)Nc1ccc(-c2nc(N3CC4CCC(C3)O4)c3cnn(C4CCC5(CC4)OCCO5)c3n2)cc1`, the % of control [8] is reported as 91% and the % of control [9] is reported as 72%.

With `COc1cc(Nc2nc(C)cc(-c3cnn4nc(OC)ccc34)n2)cc(C(F)(F)F)c1` the % of control [10] was 100%.

`Cc1cc(F)c(C(=O)Nc2cccc(-c3nncn3C(C)C)n2)cc1-n1cnc(C2CC2)c1` showed a % of control [11] of 85%.

In the case of `C=CC(=O)Nc1cc(-n2c(=O)ccc3cnc4ccc(-c5ccc(NS(C)(=O)=O)cc5)cc4c32)ccc1C`, the % of control [12] is reported as 67%.

For `O[C@H]1CC[C@H](Nc2ncc3nc(Nc4c(F)cc(F)cc4F)n([C@H]4CCOC4)c3n2)CC1`, the % of control [13] was 79%.

Compound `CNCCN1CCC(c2cc(CN(C)C(=O)c3cccc(Oc4ccccc4)c3)ccn2)CC1` has a % activity [14] of over 90%.
